Results as given in patent publication US9487494B2, “Cyclic hydrocarbon compounds for the treatment of diseases” (LEO PHARMA A/S, priority 2007, dated 2016).

Tests used:
[1] = system: rat 5/6 nephrectomy model; experiment: In vivo test using the 5/6 nephrectomy model in rats (secondary hyperparathyroidism); settings: 336 h, oral once daily for two weeks, 5/6 nephrectomized rats, read-out: ED50, PTH lowering effect
Source text: The lowering effect of different compounds on serum PTH was examined in vivo in the rat 5/6 nephrectomy model which is a widely accepted animal model of secondary hyperparathyroidism.
Two-third of the rats' (Sprague Dawley, at least 8 weeks old) left kidney was surgically removed followed by removal of the right kidney one week later.
After disease initiation, blood was obtained by retro-orbital bleeding and urine was collected using metabolic cages. Serum PTH, calcium, phosphorus, albumin, creatinine, and BUN as well as urinary creatinine and albumin were measured. Rats were then stratified into different treatment groups (9-12 rats/group) based on the results obtained. One group of normal rats without surgery served as control (“control”) and one group of nephrectomized rats treated with vehicle (1% Methylcellulose) was used as another control (“5/6 NEPX”). All other groups were treated orally with test compound at various doses once daily for two weeks and the above mentioned parameters were monitored weekly.

[2] = target: recombinant human P450 2D6 (Homo sapiens (Human), UniProt P10635); experiment: Screening for P450 2D6 inhibition (fluorescent AMMC substrate); type: in vitro ADME; settings: recombinant human P450 CYP2D6, AMMC substrate, 30 min
recombinant human P450 2D6, sequence (P10635 whole entry): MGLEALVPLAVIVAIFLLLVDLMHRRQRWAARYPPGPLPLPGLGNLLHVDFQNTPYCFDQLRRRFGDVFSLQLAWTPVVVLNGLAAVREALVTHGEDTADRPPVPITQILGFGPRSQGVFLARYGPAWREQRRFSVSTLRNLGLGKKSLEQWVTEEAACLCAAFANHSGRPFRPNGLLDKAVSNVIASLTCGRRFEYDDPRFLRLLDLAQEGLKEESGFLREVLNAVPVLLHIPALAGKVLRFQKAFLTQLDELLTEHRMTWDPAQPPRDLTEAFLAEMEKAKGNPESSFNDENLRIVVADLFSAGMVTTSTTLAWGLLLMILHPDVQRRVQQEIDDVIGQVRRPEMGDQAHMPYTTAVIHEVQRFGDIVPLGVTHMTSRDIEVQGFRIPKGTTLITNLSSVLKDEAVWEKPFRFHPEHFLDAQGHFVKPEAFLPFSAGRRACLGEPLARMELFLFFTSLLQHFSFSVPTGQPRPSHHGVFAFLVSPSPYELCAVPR
Description: The assay rapidly screen for potential inhibitors of human P450 2D6 catalytic activity, by using recombinant human P450 2D6. The IC50 determination is performed in duplicate at eight concentrations.
Incubations were conducted in 96 well microtiter plates based on a method described by BD Biosciences. To the first well in each row, a NADPH regenerating system and test compound was added. In the second well and all remaining wells, NADPH regenerating system and acetonitrile (final concentration of 2%) was added. The final assay concentration of the NADPH regenerating system was 8.2 μM NADP^+, 0.41 mM glucose-6-phosphate, 0.41 mM magnesium chloride hexahydrate and 0.4 U/ml glucose-6-phosphate dehydrogenase and 0.01 mg/mL control insect cell membrane protein. The test compound solution was serially diluted 1:3 through the eighth wells.
The final concentration of the test compounds were in the range 100 μM to 45.7 nM in the eight rows. Wells 9 and 10 contained no test compound (only NADPH regenerating system and enzyme/substrate mix) and wells 11 and 12 were used as controls for background fluorescence (enzyme and substrate were added after the reaction was terminated). The plate was then pre-incubated at 37° C. for 10 min, and the reaction was initiated by the addition of pre-warmed enzyme/substrate mix. The assay concentration of the enzyme/substrate mix was 100 mM potassium phosphate, pH 7.4, 1.5 pmol recombinant human P450 CYP2D6 and 1.5 μM of the fluorescent substrate 3-[2-(N,N diethyl-N-methylamino)ethyl]-7-methoxy-4-methylcounnarin (AMMC). The assay was conducted in duplicate in a final volume of 200 μL per well. Reactions were terminated after 30 min by addition of a 4:1, acetonitrile:0.5 M Tris base solution. Quinidine was used as positive control, 0.5 μM as highest concentration. Fluorescence per well was measured using a fluorescence plate reader (excitation: 390 nm, emission: 460 nm). The IC50 values were calculated.

[3] = system: normal male Sprague Dawley rats; experiment: In vivo test in normal rats (serum PTH and calcium); design: species or system rat; settings: for PTH suppression / Suppression of Ca^2+: 1 mg/kg p.o., single dose, 2 hours after dosing, compared to vehicle-treated animals; for ED50: Rattus norvegicus, 2 h, oral single doses, blood two hours thereafter, normal rats, read-out: ED50 with respect to PTH suppression
Description: Various compounds were administered to normal male Sprague Dawley rats in order to examine the pharmacological effect on serum levels of total calcium and parathyroid hormone (PTH). The experiments were performed by orally administering a single dose of the respective compounds as compared to vehicle-treated animals or animals treated with the competitor compound Cinacalcet.
As a standard, a group of six animals were treated orally with 1 mg/kg of compound as a 1% methylcellulose suspension and two hours thereafter, blood was obtained by retro-orbital bleeding under anaesthesia and the serum calcium and PTH levels were measured.
In some instances, rats were treated orally with various doses of a given compound in 1% methylcellulose (six rats/dose) and blood was obtained by retro-orbital bleeding two hours thereafter. Using the software GraphPad Prism® 5, ED50 values for Cinacalcet, Compound 1056, Compound 1186, and Compound 1190 with respect to PTH suppression were calculated to be 0.9 mg/kg, 0.1 mg/kg, 0.04 mg/kg, and 0.002 mg/kg, respectively.
For some compounds, rats were bled at several time-points after oral administration (six rats/time point), and suppression of serum PTH levels was observed over time.

Structure (SMILES)	IC50 [2]	ED50 [1]	PTH suppression [3]	Suppression of Ca^2+ [3]	ED50 [3]
C[C@@H](N[C@H]1CCC[C@H](c2ccc(C(=O)N3CC(C(=O)O)C3)cc2)C1)c1cccc2ccccc12 [Compound 1142, 1-{4-[(1S,3S)-3-((R)-1-Naphthalen-1-yl-ethylamino)-cyclohexyl]-benzoyl}-azetidine-3-carboxylic acid]	25 µM				
C[C@@H](N[C@H]1CCC[C@H](c2ccc(C(=O)N3CCC(C(=O)O)CC3)cc2)C1)c1cccc2ccccc12 [Compound 1146, 1-{4-[(1S,3S)-3-((R)-1-Naphthalen-1-yl-ethylamino)-cyclohexyl]-benzoyl}-piperidine-4-carboxylic acid]	16 µM		84%	0%	
C[C@@H](NCCCc1cccc(C(F)(F)F)c1)c1cccc2ccccc12 [Cinacalcet, reference compound]	0.05 µM	~20 mg/kg	48%	5%	0.9 mg/kg
C[C@@H](NC1CCC(c2ccc(OCC(=O)O)cc2)C1)c1cccc2ccccc12 (stereo partly drawn) [Compound 1188, {4-[3-((R)-1-Naphthalen-1-yl-ethylamino)-cyclopentyl]-phenoxy}-acetic acid]			97%	12%	
C[C@@H](N[C@H]1CCC[C@H](c2ccc(C(=O)NCC(=O)O)cc2)C1)c1cccc2ccccc12 [Compound 1115, {4-[(1S,3S)-3-((R)-1-Naphthalen-1-yl-ethylamino)-cyclohexyl]-benzoylamino}-acetic acid]	13 µM		50%	3%	

The remaining molecules from weak to strong by IC50 [2], led by results:

IC50 [2]	Structure (SMILES)	ED50 [1]	PTH suppression [3]	Suppression of Ca^2+ [3]	ED50 [3]
100 µM	C[C@@H](NC1CC[C@H](c2ccc(C(=O)O)cc2)C1)c1cccc2ccccc12 (stereo partly drawn) [Compound 1338, 4-[3-((R)-1-Naphthalen-1-yl-ethylamino)-cyclopentyl]-benzoic acid]		85%	29%	
79 µM	C[C@@H](N[C@H]1CC[C@H](c2ccc(CCC(=O)O)cc2)C1)c1cccc2ccccc12.Cl [Compound 1190, 3-{4-[(1S,3S)-3-((R)-1-Naphthalen-1-yl-ethylamino)-cyclopentyl]-phenyl}-propionic acid hydrochloride]	~0.01 mg/kg	93%	18.5%	0.002 mg/kg
50 µM	C[C@@H](N[C@H]1CC[C@@H](c2ccc(OCC(=O)O)cc2)C1)c1cccc2ccccc12 [Compound 1186, {4-[(1R,3S)-3-((R)-1-Naphthalen-1-yl-ethylamino)-cyclopentyl]-phenoxy}-acetic acid]	~0.3 mg/kg	98%	6%	0.04 mg/kg
10 µM	C[C@@H](NC1CCCC(c2ccc(C(=O)O)cc2)C1)c1cccc2ccccc12 (stereo partly drawn) [Compound 1056, 4-[3-((R)-1-naphthalen-1-yl-ethylamino)-cyclohexyl]-benzoic acid]	~2 mg/kg	85%	1%	0.1 mg/kg
10 µM	C[C@@H](N[C@H]1CCC[C@H](c2ccc(C(=O)NCCC(=O)O)cc2)C1)c1cccc2ccccc12.Cl [Compound 1136, 3-{4-[(1S,3S)-3-((R)-1-Naphthalen-1-yl-ethylamino)-cyclohexyl]-benzoylamino}-propionic acid hydrochloride]		61%	7%	
